Data taken from ChEMBL document CHEMBL4219034, “Synthesis, antimicrobial activity, structure-activity relationship and cytotoxic studies of a new series of functionalized (Z)-3-(2-oxo-2-substituted ethylidene)-3,4-dihydro-2H-benzo[b][1,4]oxazin-2-ones” (Bioorg Med Chem Lett, 2017).
In brackets after ≈: the same amount, converted by molar mass. Activity calls are given as the source filed them. No cut-off for these calls is given here.

Legend:
Fusarium oxysporum [1] = test: Antifungal activity against Fusarium oxysporum ATCC 62506 at 100 ug/ml incubated for 72 hrs by agar disc diffusion assay; type: functional; conditions: for zone of inhibition at 100 µg/mL: ATCC 62506, 72 h, read-out: IZ
Talaromyces funiculosus [2] = test: Antifungal activity against Penicillium funiculosum ATCC 11797 incubated for 24 hrs by serial dilution method; type: functional
Staphylococcus aureus [3] = test: Antibacterial activity against Staphylococcus aureus MTCC 3381 at 100 ug/ml incubated for 12 hrs by agar disc diffusion assay; type: functional; conditions: for zone of inhibition at 100 µg/mL: MTCC 3381, 12 h, read-out: IZ
Escherichia coli [4] = test: Antibacterial activity against Escherichia coli MTCC 443 at 100 ug/ml incubated for 12 hrs by agar disc diffusion assay; type: functional; conditions: MTCC 443, 12 h, read-out: IZ
Staphylococcus aureus [5] = test: Antibacterial activity against Staphylococcus aureus MTCC 3381 incubated for 24 hrs by serial dilution method; type: functional
Streptomyces griseus [6] = test: Antibacterial activity against Streptomyces griseus MTCC 4734 at 100 ug/ml incubated for 12 hrs by agar disc diffusion assay; type: functional; conditions: for zone of inhibition at 100 µg/mL: MTCC 4734, 12 h, read-out: IZ
Fusarium oxysporum [7] = test: Antifungal activity against Fusarium oxysporum ATCC 62506 incubated for 24 hrs by serial dilution method; type: functional
Escherichia coli [8] = test: Antibacterial activity against Escherichia coli MTCC 443 incubated for 24 hrs by serial dilution method; type: functional; conditions: MTCC 443, 24 h
Trichoderma reesei [9] = test: Antifungal activity against Trichoderma reesei ATCC 13631 at 100 ug/ml incubated for 72 hrs by agar disc diffusion assay; type: functional; conditions: for zone of inhibition at 100 µg/mL: ATCC 13631, 72 h, read-out: IZ
Aspergillus niger [10] = test: Antifungal activity against Aspergillus niger ATCC 9029 at 100 ug/ml incubated for 72 hrs by agar disc diffusion assay; type: functional; conditions: for zone of inhibition at 100 µg/mL: ATCC 9029, 72 h, read-out: IZ
Bacillus subtilis [11] = test: Antibacterial activity against Bacillus subtilis MTCC 10619 incubated for 24 hrs by serial dilution method; type: functional
Staphylococcus aureus [12] = test: Potency index, ratio of ampicillin MIC to compound MIC for Staphylococcus aureus MTCC 3381 by serial dilution method; type: functional
Aspergillus niger [13] = test: Antifungal activity against Aspergillus niger ATCC 9029 incubated for 24 hrs by serial dilution method; type: functional
Trichoderma reesei [14] = test: Antifungal activity against Trichoderma reesei ATCC 13631 incubated for 24 hrs by serial dilution method; type: functional
[15] = Cytotoxicity against mouse NIH/3T3 cells assessed as cell viability at 250 ug/ml after 72 hrs by MTT assay relative to control; type: cell-based, NIH3T3; conditions: read-out: Activity
[16] = Cytotoxicity against mouse NIH/3T3 cells assessed as cell viability at 25 ug/ml after 72 hrs by MTT assay relative to control; type: cell-based, NIH3T3; conditions: read-out: Activity
Bacillus subtilis [17] = test: Antibacterial activity against Bacillus subtilis MTCC 10619 at 100 ug/ml incubated for 12 hrs by agar disc diffusion assay; type: functional; conditions: for zone of inhibition at 100 µg/mL: MTCC 10619, 12 h, read-out: IZ
[18] = Cytotoxicity against mouse NIH/3T3 cells assessed as cell viability at 50 ug/ml after 72 hrs by MTT assay relative to control; type: cell-based, NIH3T3; conditions: read-out: Activity
[19] = Cytotoxicity against mouse NIH/3T3 cells assessed as cell viability at 100 ug/ml after 72 hrs by MTT assay relative to control; type: cell-based, NIH3T3; conditions: read-out: Activity
Streptomyces griseus [20] = test: Antibacterial activity against Streptomyces griseus MTCC 4734 incubated for 24 hrs by serial dilution method; type: functional
Talaromyces funiculosus [21] = test: Antifungal activity against Penicillium funiculosum ATCC 11797 at 100 ug/ml incubated for 72 hrs by agar disc diffusion assay; type: functional; conditions: for zone of inhibition at 100 µg/mL: ATCC 11797, 72 h, read-out: IZ
Bacillus subtilis [22] = test: Potency index, ratio of ampicillin MIC to compound MIC for Bacillus subtilis MTCC 10619 by serial dilution method; type: functional
Bacillus subtilis [23] = test: Potency index, ratio of chloramphenicol MIC to compound MIC for Bacillus subtilis MTCC 10619 by serial dilution method; type: functional
Streptomyces griseus [24] = test: Potency index, ratio of ampicillin MIC to compound MIC for Streptomyces griseus MTCC 4734 by serial dilution method; type: functional

Row | Structure (SMILES) | zone of inhibition at 100 µg/mL (Fusarium oxysporum [1]) | MIC (Talaromyces funiculosus [2]; ATCC 11797, 24 h) | zone of inhibition at 100 µg/mL (Staphylococcus aureus [3]) | zone of inhibition at 100 µg/mL (Escherichia coli [4]) | MIC (Staphylococcus aureus [5]; MTCC 3381, 24 h) | zone of inhibition at 100 µg/mL (Streptomyces griseus [6]) | MIC (Fusarium oxysporum [7]; ATCC 62506, 24 h) | MIC (Escherichia coli [8]) | zone of inhibition at 100 µg/mL (Trichoderma reesei [9]) | MIC (Bacillus subtilis [11]; MTCC 10619, 24 h) | MIC (Trichoderma reesei [14]; ATCC 13631, 24 h) | viability at 72 h, 250 ug/ml [15] | viability at 72 h, 25 ug/ml [16] | zone of inhibition at 100 µg/mL (Bacillus subtilis [17]) | viability at 72 h, 50 ug/ml [18] | viability at 72 h, 100 ug/ml [19] | MIC (Streptomyces griseus [20]; MTCC 4734, 24 h) | zone of inhibition at 100 µg/mL (Talaromyces funiculosus [21]) | zone of inhibition at 100 µg/mL (Aspergillus niger [10]) | MIC (Aspergillus niger [13]; ATCC 9029, 24 h) | further results
1 | O=C1Oc2ccc([N+](=O)[O-])cc2N/C1=C\C(=O)c1ccc(-c2ccccc2)cc1 | 14 mm | 25 µg/mL (≈ 64.7 µM) | 20 mm | 16 mm | 6.25 µg/mL (≈ 16.2 µM) | 20 mm | 50 µg/mL (≈ 129 µM) | 25 µg/mL (≈ 64.7 µM) | 10 mm | 25 µg/mL (≈ 64.7 µM) | 100 µg/mL (≈ 259 µM) | 77.1% | 91% | 18 mm | 83.5% | 77.6% | 12.5 µg/mL (≈ 32.4 µM) | 16 mm | – | – | inhibition zone (IZ) (Aspergillus niger [10]): inactive; Ratio (Staphylococcus aureus [12]): 2; MIC (Aspergillus niger [13]): inactive
2 | O=C1Oc2ccc(Cl)cc2N/C1=C\C(=O)C1CC1 | 22 mm | – | 12 mm | 10 mm | 12.5 µg/mL (≈ 47.4 µM) | – | 12.5 µg/mL (≈ 47.4 µM) | 50 µg/mL (≈ 190 µM) | – | 100 µg/mL (≈ 379 µM) | – | 79.1% | 99% | 8 mm | 90.3% | 86.6% | – | – | – | – | MIC (Talaromyces funiculosus [2]): inactive; inhibition zone (IZ) (Streptomyces griseus [6]): inactive; inhibition zone (IZ) (Trichoderma reesei [9]): inactive; inhibition zone (IZ) (Aspergillus niger [10]): inactive; MIC (Aspergillus niger [13]): inactive; MIC (Trichoderma reesei [14]): inactive; MIC (Streptomyces griseus [20]): inactive; inhibition zone (IZ) (Talaromyces funiculosus [21]): inactive
3 | O=C1Oc2ccccc2N/C1=C\C(=O)c1ccc(C2CCCCC2)cc1 | – | 50 µg/mL (≈ 144 µM) | – | 8 mm | – | 10 mm | – | 100 µg/mL (≈ 288 µM) | – | 6.25 µg/mL (≈ 18 µM) | – | – | – | 22 mm | – | – | 50 µg/mL (≈ 144 µM) | 6 mm | 6 mm | 50 µg/mL (≈ 144 µM) | inhibition zone (IZ) (Fusarium oxysporum [1]): inactive; inhibition zone (IZ) (Staphylococcus aureus [3]): inactive; MIC (Staphylococcus aureus [5]): inactive; Ratio (Bacillus subtilis [22]): 4; MIC (Fusarium oxysporum [7]): inactive; inhibition zone (IZ) (Trichoderma reesei [9]): inactive; MIC (Trichoderma reesei [14]): inactive
4 | O=C1Oc2cc([N+](=O)[O-])ccc2N/C1=C\C(=O)c1cccc2ccccc12 | 18 mm | 25 µg/mL (≈ 69.4 µM) | 8 mm | 26 mm | 100 µg/mL (≈ 278 µM) | – | 25 µg/mL (≈ 69.4 µM) | 12.5 µg/mL (≈ 34.7 µM) | 18 mm | – | 25 µg/mL (≈ 69.4 µM) | 76.3% | 93.5% | – | 88.9% | 83% | – | 20 mm | – | – | inhibition zone (IZ) (Streptomyces griseus [6]): inactive; inhibition zone (IZ) (Aspergillus niger [10]): inactive; MIC (Bacillus subtilis [11]): inactive; MIC (Aspergillus niger [13]): inactive; inhibition zone (IZ) (Bacillus subtilis [17]): inactive; MIC (Streptomyces griseus [20]): inactive
5 | O=C1Oc2cc([N+](=O)[O-])ccc2N/C1=C\C(=O)c1ccc(C2CCCCC2)cc1 | 20 mm | 100 µg/mL (≈ 255 µM) | 14 mm | 18 mm | 12.5 µg/mL (≈ 31.9 µM) | 10 mm | 25 µg/mL (≈ 63.7 µM) | 25 µg/mL (≈ 63.7 µM) | 12 mm | 3.12 µg/mL (≈ 7.95 µM) | 25 µg/mL (≈ 63.7 µM) | 78.3% | 97.8% | 24 mm | 89% | 84.6% | 50 µg/mL (≈ 127 µM) | 14 mm | 8 mm | 100 µg/mL (≈ 255 µM) | Ratio (Bacillus subtilis [22]): 8; Ratio (Bacillus subtilis [23]): 2
6 | O=C1Oc2ccc([N+](=O)[O-])cc2N/C1=C\C(=O)C1CC1 | 22 mm | – | 6 mm | 14 mm | 100 µg/mL (≈ 365 µM) | 22 mm | 12.5 µg/mL (≈ 45.6 µM) | 50 µg/mL (≈ 182 µM) | – | – | – | 73.7% | 93.2% | – | 86% | 79.5% | 6.25 µg/mL (≈ 22.8 µM) | – | 6 mm | 100 µg/mL (≈ 365 µM) | MIC (Talaromyces funiculosus [2]): inactive; inhibition zone (IZ) (Trichoderma reesei [9]): inactive; MIC (Bacillus subtilis [11]): inactive; MIC (Trichoderma reesei [14]): inactive; inhibition zone (IZ) (Bacillus subtilis [17]): inactive; inhibition zone (IZ) (Talaromyces funiculosus [21]): inactive
7 | O=C1Oc2cc([N+](=O)[O-])ccc2N/C1=C\C(=O)C1CC1 | 10 mm | 100 µg/mL (≈ 365 µM) | 10 mm | 18 mm | 12.5 µg/mL (≈ 45.6 µM) | 28 mm | 50 µg/mL (≈ 182 µM) | 25 µg/mL (≈ 91.2 µM) | – | 3.12 µg/mL (≈ 11.4 µM) | – | 76.3% | 94.3% | 24 mm | 90.9% | 83.3% | 3.12 µg/mL (≈ 11.4 µM) | 6 mm | 8 mm | 100 µg/mL (≈ 365 µM) | Ratio (Bacillus subtilis [22]): 8; Ratio (Bacillus subtilis [23]): 2; inhibition zone (IZ) (Trichoderma reesei [9]): inactive; MIC (Trichoderma reesei [14]): inactive; Ratio (Streptomyces griseus [24]): 4
8 | O=C1Oc2ccc([N+](=O)[O-])cc2N/C1=C\C(=O)c1ccc(C2CCCCC2)cc1 | 10 mm | 25 µg/mL (≈ 63.7 µM) | 20 mm | 18 mm | 6.25 µg/mL (≈ 15.9 µM) | 22 mm | 50 µg/mL (≈ 127 µM) | 25 µg/mL (≈ 63.7 µM) | 20 mm | 12.5 µg/mL (≈ 31.9 µM) | 25 µg/mL (≈ 63.7 µM) | 79.2% | 98.2% | 16 mm | 89.1% | 82.5% | 12.5 µg/mL (≈ 31.9 µM) | 16 mm | 18 mm | 25 µg/mL (≈ 63.7 µM) | Ratio (Staphylococcus aureus [12]): 2
